System: MV-4-11 cells
Test: Gene expression microarray analysis (Affymetrix PrimeView) and GSEA
Type: cell-based, human
Design: RFU PODN (11730768_x_at) / Fold change /veh PODN (11730768_x_at) / RFU LINC00158 (11744669_a_at) / Fold change /veh LINC00158 (11744669_a_at) / RFU DUSP10 (11751237_a_at) / Fold change /veh DUSP10 (11751237_a_at) / RFU ID3 (11757404_x_at) / Fold change /veh ID3 (11757404_x_at) / RFU PLEKHG5 (11737974_s_at) / Fold change /veh PLEKHG5 (11737974_s_at) / RFU LRRC4B (11730491_at) / Fold change /veh LRRC4B (11730491_at) / RFU GIMAP4 (11747438_a_at) / Fold change /veh GIMAP4 (11747438_a_at) / RFU KRT8 (11758183_x_at) / Fold change /veh KRT8 (11758183_x_at) / RFU CNN1 (11734310_a_at) / Fold change /veh CNN1 (11734310_a_at) / RFU VPS37D (11726825_at) / Fold change /veh VPS37D (11726825_at) / RFU C10orf10 (11716522_x_at) / Fold change /veh C10orf10 (11716522_x_at) / RFU KIR2DL2 /// KIR2DL4 /// KIR2DL5A /// KIR2DL5B /// KIR2DS1 /// KIR2DS2 /// KIR2DS3 /// KIR2DS4 /// KIR3DL3 /// KIR3DL3 /// KIR3DS1 (11738374_at) / Fold change /veh KIR2DL2 /// KIR2DL4 /// KIR2DL5A /// KIR2DL5B /// KIR2DS1 /// KIR2DS2 /// KIR2DS3 /// KIR2DS4 /// KIR3DL3 /// KIR3DL3 /// KIR3DS1 (11738374_at) / RFU C1QL1 (11718748_at) / Fold change /veh C1QL1 (11718748_at) / RFU TMPRSS4 (11747572_a_at) / Fold change /veh TMPRSS4 (11747572_a_at) / RFU HAMP (11756126_x_at) / Fold change /veh HAMP (11756126_x_at) / RFU RNFT2 (11725882_a_at) / Fold change /veh RNFT2 (11725882_a_at) / RFU NR4A2 (11747474_a_at) / Fold change /veh NR4A2 (11747474_a_at) / RFU ABCC12 (11746883_a_at) / Fold change /veh ABCC12 (11746883_a_at) / RFU TMEM136 (11760407_x_at) / Fold change /veh TMEM136 (11760407_x_at) / RFU CLDN22 /// WWC2 (11732394_at) / Fold change /veh CLDN22 /// WWC2 (11732394_at) / RFU HLA-DPB1 (11760878_x_at) / Fold change /veh HLA-DPB1 (11760878_x_at) / RFU SPINT1 (11716480_a_at) / Fold change /veh SPINT1 (11716480_a_at) / RFU GAP43 (11754022_s_at) / Fold change /veh GAP43 (11754022_s_at) / RFU A4GNT (11735810_at) / Fold change /veh A4GNT (11735810_at) / RFU PRB3 (11715151_x_at) / Fold change /veh PRB3 (11715151_x_at) / RFU TUBB4B (11761932_at) / Fold change /veh TUBB4B (11761932_at) / RFU CAPN14 (11732068_a_at) / Fold change /veh CAPN14 (11732068_a_at) / RFU TMCC2 (11721928_a_at) / Fold change /veh TMCC2 (11721928_a_at) / RFU IRGQ (11745062_a_at) / Fold change /veh IRGQ (11745062_a_at) / RFU FAM174B (11720279_a_at) / Fold change /veh FAM174B (11720279_a_at) / RFU TMPRSS4 (11748680_a_at) / Fold change /veh TMPRSS4 (11748680_a_at) / RFU FAM212B (11763350_a_at) / Fold change /veh FAM212B (11763350_a_at) / RFU PLEKHG5 (11743358_a_at) / Fold change /veh PLEKHG5 (11743358_a_at) / RFU ZSCAN30 (11745921_a_at) / Fold change /veh ZSCAN30 (11745921_a_at) / RFU CMKLR1 (11741424_a_at) / Fold change /veh CMKLR1 (11741424_a_at) / RFU LOC101060620 /// MAPK8IP1 (11723275_at) / Fold change /veh LOC101060620 /// MAPK8IP1 (11723275_at) / RFU SPTSSB (11747773_x_at) / Fold change /veh SPTSSB (11747773_x_at) / RFU PRSS12 (11739890_at) / Fold change /veh PRSS12 (11739890_at) / RFU BIN1 (11741810_x_at) / Fold change /veh BIN1 (11741810_x_at) / RFU WNT11 (11732464_a_at) / Fold change /veh WNT11 (11732464_a_at) / RFU C10orf10 (11716521_a_at) / Fold change /veh C10orf10 (11716521_a_at) / RFU C5orf56 (11738089_at) / Fold change /veh C5orf56 (11738089_at) / RFU CYB561 (11721691_x_at) / Fold change /veh CYB561 (11721691_x_at) / RFU ANKRD19P (11752326_a_at) / Fold change /veh ANKRD19P (11752326_a_at) / RFU OR2T12 /// OR2T33 /// OR2T8 (11738714_s_at) / Fold change /veh OR2T12 /// OR2T33 /// OR2T8 (11738714_s_at) / RFU VCAN (11748164_a_at) / Fold change /veh VCAN (11748164_a_at) / RFU JSRP1 (11732532_at) / Fold change /veh JSRP1 (11732532_at) / RFU KRTAP10-11 (11738290_x_at) / Fold change /veh KRTAP10-11 (11738290_x_at) / RFU MYO3A (11730013_a_at) / Fold change /veh MYO3A (11730013_a_at) / RFU EBF3 (11725865_a_at) / Fold change /veh EBF3 (11725865_a_at) / RFU CAMK2N1 (11719241_x_at) / Fold change /veh CAMK2N1 (11719241_x_at) / RFU C5orf56 (11738088_a_at) / Fold change /veh C5orf56 (11738088_a_at) / RFU OLFML3 (11715873_a_at) / Fold change /veh OLFML3 (11715873_a_at) / RFU LOC100653217 /// NTM (11731650_a_at) / Fold change /veh LOC100653217 /// NTM (11731650_a_at) / RFU MAPK11 (11762145_a_at) / Fold change /veh MAPK11 (11762145_a_at) / RFU FIZ1 (11724087_x_at) / Fold change /veh FIZ1 (11724087_x_at) / RFU OASL (11726364_x_at) / Fold change /veh OASL (11726364_x_at) / RFU SOX15 (11748057_x_at) / Fold change /veh SOX15 (11748057_x_at) / RFU CD79A (11719716_a_at) / Fold change /veh CD79A (11719716_a_at) / RFU HIST1H1D (11736915_at) / Fold change /veh HIST1H1D (11736915_at) / RFU CASKIN2 (11723855_a_at) / Fold change /veh CASKIN2 (11723855_a_at) / RFU LOC730098 (11760151_x_at) / Fold change /veh LOC730098 (11760151_x_at) / RFU OR4N2 (11742367_at) / Fold change /veh OR4N2 (11742367_at) / RFU PRRT2 (11749266_a_at) / Fold change /veh PRRT2 (11749266_a_at) / RFU SNX32 (11753110_a_at) / Fold change /veh SNX32 (11753110_a_at) / RFU CDHR5 (11726645_a_at) / Fold change /veh CDHR5 (11726645_a_at) / RFU RCAN1 (11760418_a_at) / Fold change /veh RCAN1 (11760418_a_at) / RFU FAM167A (11723789_a_at) / Fold change /veh FAM167A (11723789_a_at) / RFU FAM26E (11764081_at) / Fold change /veh FAM26E (11764081_at) / RFU ISYNA1 (11749810_s_at) / Fold change /veh ISYNA1 (11749810_s_at) / RFU ACY1 (11761880_at) / Fold change /veh ACY1 (11761880_at) / RFU 11764098_at / Fold change /veh 11764098_at / RFU SAMD14 (11745864_x_at) / Fold change /veh SAMD14 (11745864_x_at) / RFU NPB (11741838_a_at) / Fold change /veh NPB (11741838_a_at) / RFU TMPRSS6 (11731388_a_at) / Fold change /veh TMPRSS6 (11731388_a_at) / RFU KRTAP10-2 (11738614_at) / Fold change /veh KRTAP10-2 (11738614_at) / RFU ARHGAP8 /// PRR5-ARHGAP8 (11727945_x_at) / Fold change /veh ARHGAP8 /// PRR5-ARHGAP8 (11727945_x_at) / RFU KRTAP5-7 /// NADSYN1 (11734609_at) / Fold change /veh KRTAP5-7 /// NADSYN1 (11734609_at) / RFU RASL12 (11751679_a_at) / Fold change /veh RASL12 (11751679_a_at) / RFU CDKN2B (11736163_a_at) / Fold change /veh CDKN2B (11736163_a_at) / RFU PRF1 (11729649_at) / Fold change /veh PRF1 (11729649_at) / RFU, ZNF638 /// ZNF638-IT1 / Fold change vs veh, ZNF638 /// ZNF638-IT1 / RFU, PANK3 / Fold change vs veh, PANK3 / RFU, SH3YL1 / Fold change vs veh, SH3YL1 / RFU, ZEB2 / Fold change vs veh, ZEB2 / RFU, NRIP1 / Fold change vs veh, NRIP1 / RFU, PTTG1IP / Fold change vs veh, PTTG1IP / RFU, CAPN2 / Fold change vs veh, CAPN2 / RFU, MED14 / Fold change vs veh, MED14 / RFU, SNORA58 / Fold change vs veh, SNORA58 / RFU, C1orf63 / Fold change vs veh, C1orf63 / RFU, LRRFIP1 / Fold change vs veh, LRRFIP1 / RFU, NDUFAF7 / Fold change vs veh, NDUFAF7 / RFU, SLC12A2 / Fold change vs veh, SLC12A2 / RFU, IBTK / Fold change vs veh, IBTK / RFU, ESF1 / Fold change vs veh, ESF1 / Fold change vs veh, TMEM50B / RFU, TAOK1 / Fold change vs veh, TAOK1 / RFU, ACBD3 / Fold change vs veh, ACBD3 / RFU, TMA16 / Fold change vs veh, TMA16 / RFU, RWDD3 / Fold change vs veh, RWDD3 / RFU, BCAT1 / Fold change vs veh, BCAT1 / RFU, EDEM3 / Fold change vs veh, EDEM3 / RFU, TMEM33 / Fold change vs veh, TMEM33 / RFU, WDR75 / Fold change vs veh, WDR75 / RFU, AHCTF1 / Fold change vs veh, AHCTF1 / RFU, TFRC / Fold change vs veh, TFRC / RFU, ZDHHC17 / Fold change vs veh, ZDHHC17 / RFU, NOM1 / Fold change vs veh, NOM1 / RFU, ARL8B / Fold change vs veh, ARL8B / RFU, ZBTB11 / Fold change vs veh, ZBTB11 / RFU, TAMM41 / Fold change vs veh, TAMM41 / RFU, KIAA1704 /// LOC100996395 / Fold change vs veh, KIAA1704 /// LOC100996395 / RFU, ING1 / Fold change vs veh, ING1 / RFU, TRMT61B / Fold change vs veh, TRMT61B / RFU, FUBP3 / Fold change vs veh, FUBP3 / RFU, TP53 / Fold change vs veh, TP53 / RFU, TNKS2 / Fold change vs veh, TNKS2 / RFU, ZFP14 / Fold change vs veh, ZFP14 / RFU, ACTR2 / Fold change vs veh, ACTR2 / RFU, PPP3R1 / Fold change vs veh, PPP3R1 / RFU, PIK3R1 / Fold change vs veh, PIK3R1 / RFU, HNRNPA1 / Fold change vs veh, HNRNPA1 / RFU, RNF170 / Fold change vs veh, RNF170 / RFU, ZNF28 / Fold change vs veh, ZNF28 / RFU, RNGTT / Fold change vs veh, RNGTT / RFU, OGT / Fold change vs veh, OGT / RFU, BRD1 / Fold change vs veh, BRD1 / RFU, MARS / Fold change vs veh, MARS / RFU, ZNF655 / Fold change vs veh, ZNF655 / RFU, FAHD1 / Fold change vs veh, FAHD1 / RFU, BDP1 / Fold change vs veh, BDP1 / RFU, LRRCC1 / Fold change vs veh, LRRCC1 / RFU, ARID1A / Fold change vs veh, ARID1A / RFU, ZNF146 / Fold change vs veh, ZNF146 / RFU, ZNF330 / Fold change vs veh, ZNF330 / RFU, GPN3 / Fold change vs veh, GPN3 / RFU, C9orf123 / Fold change vs veh, C9orf123 / RFU, N4BP2L2 / Fold change vs veh, N4BP2L2 / RFU, ARFIP1 / Fold change vs veh, ARFIP1 / RFU, FAM179B / Fold change vs veh, FAM179B / RFU, BCL10 / Fold change vs veh, BCL10 / RFU, UHRF1BP1L / Fold change vs veh, UHRF1BP1L / RFU, BET1 / Fold change vs veh, BET1 / RFU, CNOT2 / Fold change vs veh, CNOT2 / RFU, ZNF268 / Fold change vs veh, ZNF268 / Fold change vs veh, ZNF507 / RFU, DGCR2 / Fold change vs veh, DGCR2 / RFU, WDSUB1 / Fold change vs veh, WDSUB1 / Fold change vs veh, HSP90B1 /// MIR3652 / RFU, ADSS / Fold change vs veh, ADSS / RFU, GK / Fold change vs veh, GK / RFU, ZNF148 / Fold change vs veh, ZNF148 / RFU, TAF9 / Fold change vs veh, TAF9 / RFU, SLC1A5 / Fold change vs veh, SLC1A5 / RFU, SLMO2 / Fold change vs veh, SLMO2 / RFU, ABCC4 / Fold change vs veh, ABCC4 / RFU, LOC101060439 /// RAP1B / Fold change vs veh, LOC101060439 /// RAP1B / RFU, RFX7 / Fold change vs veh, RFX7 / RFU, GTPBP10 / Fold change vs veh, GTPBP10 / RFU, CNEP1R1 / Fold change vs veh, CNEP1R1 / RFU, BIVM-ERCC5 /// ERCC5 / Fold change vs veh, BIVM-ERCC5 /// ERCC5 / RFU, ILF3 / Fold change vs veh, ILF3 / RFU 11762660_at / Fold change /veh 11762660_at / RFU VCAN (11757783_s_at) / Fold change /veh VCAN (11757783_s_at) / RFU DDX43 (11728927_at) / Fold change /veh DDX43 (11728927_at) / RFU KRT8 (11758188_x_at) / Fold change /veh KRT8 (11758188_x_at) / RFU NKD1 (11759106_at) / Fold change /veh NKD1 (11759106_at) / RFU SRD5A1 (11742802_a_at) / Fold change /veh SRD5A1 (11742802_a_at) / RFU TPSAB1 /// TPSB2 (11721975_s_at) / Fold change /veh TPSAB1 /// TPSB2 (11721975_s_at) / RFU GSTM3 (11746129_a_at) / Fold change /veh GSTM3 (11746129_a_at) / RFU IL23R (11737362_x_at) / Fold change /veh IL23R (11737362_x_at) / RFU TMEM51 (11727254_a_at) / Fold change /veh TMEM51 (11727254_a_at) / RFU PIWIL2 (11732686_x_at) / Fold change /veh PIWIL2 (11732686_x_at) / RFU ORM1 (11744905_x_at) / Fold change /veh ORM1 (11744905_x_at) / RFU CCDC152 (11743942_at) / Fold change /veh CCDC152 (11743942_at) / RFU ECM1 (11717891_a_at) / Fold change /veh ECM1 (11717891_a_at) / RFU IL23R (11748794_a_at) / Fold change /veh IL23R (11748794_a_at) / RFU TNFAIP8L3 (11732012_x_at) / Fold change /veh TNFAIP8L3 (11732012_x_at) / RFU MBOAT4 (11741988_at) / Fold change /veh MBOAT4 (11741988_at) / RFU 11764193_at / Fold change /veh 11764193_at / RFU TMEM53 (11763286_at) / Fold change /veh TMEM53 (11763286_at) / RFU MAGEB2 (11727129_at) / Fold change /veh MAGEB2 (11727129_at) / RFU TMEM200A (11744735_a_at) / Fold change /veh TMEM200A (11744735_a_at) / RFU CCDC152 (11751479_a_at) / Fold change /veh CCDC152 (11751479_a_at) / RFU FAM211A (11726209_a_at) / Fold change /veh FAM211A (11726209_a_at) / RFU RGS16 (11746705_a_at) / Fold change /veh RGS16 (11746705_a_at) / RFU VCAN (11755009_s_at) / Fold change /veh VCAN (11755009_s_at) / RFU RHOB (11743442_s_at) / Fold change /veh RHOB (11743442_s_at) / RFU RGS16 (11720943_a_at) / Fold change /veh RGS16 (11720943_a_at) / RFU RGS16 (11720944_at) / Fold change /veh RGS16 (11720944_at) / RFU, VPS4B / Fold change vs veh, VPS4B / RFU, CREB1 / Fold change vs veh, CREB1 / RFU, DNAJC13 / Fold change vs veh, DNAJC13 / RFU, GNAQ / Fold change vs veh, GNAQ / RFU, CDK5R1 / Fold change vs veh, CDK5R1 / RFU, ZRANB3 / Fold change vs veh, ZRANB3 / RFU, CUL4A / Fold change vs veh, CUL4A / RFU, CCNY / Fold change vs veh, CCNY / RFU, UFL1 / Fold change vs veh, UFL1 / RFU, COG3 / Fold change vs veh, COG3 / RFU, DIAPH2 / Fold change vs veh, DIAPH2 / RFU, SKA2 / Fold change vs veh, SKA2 / RFU, AFF3 / Fold change vs veh, AFF3 / RFU, LMF1 / Fold change vs veh, LMF1 / RFU, IPO11 / Fold change vs veh, IPO11 / RFU, DFFB / Fold change vs veh, DFFB / RFU, FOXP1 / Fold change vs veh, FOXP1 / RFU, CARD8 / Fold change vs veh, CARD8 / RFU, STRN3 / Fold change vs veh, STRN3 / RFU, ADK / Fold change vs veh, ADK / RFU, RASSF2 / Fold change vs veh, RASSF2 / RFU, WIPF1 / Fold change vs veh, WIPF1 / RFU, LARP1B / Fold change vs veh, LARP1B / RFU, RASA1 / Fold change vs veh, RASA1 / RFU, RB1 / Fold change vs veh, RB1 / RFU, PPFIA1 / Fold change vs veh, PPFIA1 / RFU, MAT2A / Fold change vs veh, MAT2A / RFU, CCT5 / Fold change vs veh, CCT5 / RFU, WDR92 / Fold change vs veh, WDR92 / RFU, CUX1 / Fold change vs veh, CUX1 / RFU, TTC7A / Fold change vs veh, TTC7A / RFU, TMEM135 / Fold change vs veh, TMEM135 / RFU, DEPTOR / Fold change vs veh, DEPTOR / RFU, CPM / Fold change vs veh, CPM / RFU, DNAJB6 / Fold change vs veh, DNAJB6 / RFU, CACNA2D3 / Fold change vs veh, CACNA2D3 / RFU, DTX4 / Fold change vs veh, DTX4 / RFU, TFCP2 / Fold change vs veh, TFCP2 / RFU, GMCL1 /// GMCL1P1 / Fold change vs veh, GMCL1 /// GMCL1P1 / RFU, AEBP2 / Fold change vs veh, AEBP2 / RFU, SNHG1 /// SNORD22 /// SNORD25 /// SNORD26 /// SNORD27 /// SNORD28 /// SNORD29 /// SNORD31 / Fold change vs veh, SNHG1 /// SNORD22 /// SNORD25 /// SNORD26 /// SNORD27 /// SNORD28 /// SNORD29 /// SNORD31 / Fold change (Aza/veh), C12orf56 (ProbeSet 11735607_a_at) / Fold change (ACY-1035/veh), C12orf56 (ProbeSet 11735607_a_at) / Fold change (Aza/veh), FGFR1OP (ProbeSet 11751329_s_at) / Fold change (ACY-1035/veh), FGFR1OP (ProbeSet 11751329_s_at) / Fold change (Aza/veh), VPS36 (ProbeSet 11739960_a_at) / Fold change (ACY-1035/veh), VPS36 (ProbeSet 11739960_a_at) / RFU SYPL1 (11715823_x_at) / Fold change /veh SYPL1 (11715823_x_at) / RFU IGFBP7 (11715501_s_at) / Fold change /veh IGFBP7 (11715501_s_at) / RFU REEP3 (11722064_at) / Fold change /veh REEP3 (11722064_at) / RFU IGLL1 (11728026_x_at) / Fold change /veh IGLL1 (11728026_x_at): dose or concentration left out as unconfirmed
Details: MV-4-11 cells, 48 hours

For `Nc1ccc(-c2cccs2)cc1NC(=O)c1ccc2c(c1)cc(C1CC1)n2CCN1CCOCC1` [ACY-1035], the “RFU TMPRSS4 (11747572_a_at)” value was 57.40 RFU.

— PMC5218480 (PLoS ONE, 2017)
